Assay results published in patent publication US20240245736A1, “COMPOSITIONS AND METHODS FOR REDUCING BLOOD ALCOHOL CONTENT” (LIFE WELL LIVED, LLC, priority 2012, published 2024).

Test: BAC scores by breathalyzer and observed behavior in subjects who had voluntarily consumed alcohol, compared with projected BAC
Type: in vivo, human
Set-up: actual BAC score / actual BAC: unit not given here
Settings: for effect on the subject's BAC score, summary of the experiments: actual vs projected BAC over the course of the experiment; for change in BAC twenty minutes after administration: summary over subjects; for signs of intoxication: twenty minutes after administration
Text: The following experiments involved subjects who voluntarily consumed alcoholic beverages. The subjects chose the type and amount of alcohol that was consumed, as well as the rate at which the alcohol was consumed. At the point when the subjects started to feel effects of their alcohol consumption and chose to stop consuming alcohol, the subjects voluntarily consumed a composition that contained a source of NAD+, Lactobacillus, Bifidobacterium, or a combination of two or more of those ingredients. Projected BAC scores were calculated approximately every twenty minutes using an online BAC calculator provided by the Wisconsin Department of Transportation, which provides a projected BAC based on factors such as the subject's weight, sex, alcohol consumed, rate of alcohol consumed, and food consumed. BAC scores were also quantitatively measured approximately every twenty minutes using a breathalyzer. The projected BAC score served as a negative control because it estimates the change in BAC that is expected to occur over time after a subject stops consuming alcohol. Changes in each subject's behavior were also observed over the course of the experiment.
The ingredients that were administered to the subjects are commercially available and sold for human consumption. In the following experiments, NAD+ was provided by administering 5 mL of Liquid CoQ10, which is made by NOW Foods and contains 5 mg NAD+ in the 5 mL dose. To administer Lactobacillus, the subjects were given two Culturelle® Health & Wellness capsules, each of which contains Lactobacillus GG (10 billion cells). To administer Bifidobacterium, subjects were given two capsules of Align® Bifantis® Bifidobacterium infantis 35624, which contain 1 billion cfu per capsule. To administer Lactobacillus and Bifidobacterium, subjects were given 1-2 capsules of Dr. Mercola's® Complete Probiotics capsules, each of which contains 35 billion cells including the following species: Lactobacillus acidophilus DDS-1, Lactobacillus casei, Lactobacillus plantarum, Lactobacillus salivarius, Lactobacillus rhamnosus, Lactobacillus brevis, Bifidobacterium lactis, Bifidobacterium longum, Bifidobacterium bifidum, and Streptococcus thermophilus. Subjects were also given 5 mg of zinc, which was provided in liquid form.

Compound: Bifidobacterium
- actual BAC (FIG. 7, person, 146 pounds, wine, 1:20, twenty minutes after administration, BAC at administration 0.159, projected 0.157): 0.151
- effect on the subject's BAC score, actual vs projected (FIG. 7 subject): little effect
- actual BAC (FIG. 8, person, 171 pounds, 12:40, twenty minutes after administration, BAC at administration 0.13, projected 0.132): 0.125
- effect on the subject's BAC score, actual vs projected (FIG. 8 subject): little effect
- effect on the subject's BAC score, summary of the experiments: no effect or only a minimal effect
- change in BAC twenty minutes after administration: increase in BAC

Compound: NC(=O)c1ccc[n+]([C@@H]2O[C@H](COP(=O)([O-])OP(=O)(O)OC[C@H]3O[C@@H](n4cnc5c(N)ncnc54)[C@H](O)[C@@H]3O)[C@@H](O)[C@H]2O)c1 [NAD+, nicotinamide adenine dinucleotide, reference compound]
- actual BAC score (FIG. 1, person, 198 pounds, beer and wine, 11:12, twenty minutes after administration, BAC at administration 0.089, projected 0.084): 0.082
- effect on the subject's BAC score, actual vs projected (FIG. 1 subject): no effect
- signs of intoxication (FIG. 1 subject): continued to exhibit signs of intoxication
- actual BAC score (FIG. 2, person, 188 pounds, beer, 11:12, twenty minutes after administration, BAC at administration 0.085, projected 0.085): 0.086
- effect on the subject's BAC score, actual vs projected (FIG. 2 subject): minimal or no effect
- signs of intoxication (FIG. 2 subject): continued to exhibit signs of intoxication
- actual BAC score (FIG. 3, person, 169 pounds, beer and vodka, 11:12, twenty minutes after administration, BAC at administration 0.086, projected 0.087): 0.086
- effect on the subject's BAC score, actual vs projected (FIG. 3 subject): little effect
- signs of intoxication (FIG. 3 subject): continued to exhibit signs of intoxication
- actual BAC (FIG. 9, person, 182 pounds, beer and vodka, 11:32, 40 minutes after NAD+ at 10:52 (BAC 0.088), before Lactobacillus and Bifidobacterium): 0.056
- effect on the subject's BAC score, summary of the experiments: no effect or only a minimal effect
- change in BAC twenty minutes after administration: increase in BAC

Compound: Lactobacillus
- actual BAC score (FIG. 4, person, 122 pounds, wine and vodka, 7:25, twenty minutes after administration, BAC at administration 0.086, projected 0.084): 0.082
- effect on the subject's BAC score, actual vs projected (FIG. 4 subject): no effect
- signs of intoxication (FIG. 4 subject): continued to exhibit signs of intoxication
- actual BAC score (FIG. 5, person, 155 pounds, beer and wine, 7:25, twenty minutes after administration, BAC at administration 0.13, projected 0.129): 0.12
- effect on the subject's BAC score, actual vs projected (FIG. 5 subject): little effect
- actual BAC score (FIG. 6, person, 169 pounds, beer and vodka, 7:25, twenty minutes after administration, BAC at administration 0.086, projected 0.074): 0.067
- effect on the subject's BAC score, actual vs projected (FIG. 6 subject): little effect
- effect on the subject's BAC score, summary of the experiments: no effect or only a minimal effect
- change in BAC twenty minutes after administration: increase in BAC
